From patent US4443436A, “C-20-Modified macrolide derivatives of the macrolide antibiotics tylosin, desmycosin, macrocin, and lactenocin” (Eli Lilly and Company, priority 1982, dated 1984)
≈ marks a conversion by molar mass, not a printed value. Like-named read-outs stand apart in the source and are kept apart here.

How the values were obtained:
[1] = tested on: Staphylococcus aureus X1.1; assay: MIC, standard agar-dilution assay, Staphylococcus aureus X1.1; format: cell-based
[2] = tested on: Staphylococcus aureus V41; assay: MIC, standard agar-dilution assay, Staphylococcus aureus V41; format: cell-based
[3] = tested on: Staphylococcus aureus X400; assay: MIC, standard agar-dilution assay, Staphylococcus aureus X400; format: cell-based
[4] = tested on: Staphylococcus aureus S13E; assay: MIC, standard agar-dilution assay, Staphylococcus aureus S13E; format: cell-based
[5] = tested on: Staphylococcus epidermidis EPI1; assay: MIC, standard agar-dilution assay, Staphylococcus epidermidis EPI1; format: cell-based
[6] = tested on: Staphylococcus epidermidis EPI2; assay: MIC, standard agar-dilution assay, Staphylococcus epidermidis EPI2; format: cell-based
[7] = tested on: Streptococcus pyogenes C203; assay: MIC, standard agar-dilution assay, Streptococcus pyogenes C203; format: cell-based
[8] = tested on: Streptococcus pneumoniae Park I; assay: microbe, parasite or virus in culture; format: cell-based
[9] = tested on: Streptococcus Group D X66; assay: MIC, standard agar-dilution assay, Streptococcus Group D X66; format: cell-based
Streptococcus Group 9960 = assay: MIC, standard agar-dilution assay, Streptococcus Group 9960; format: cell-based; settings: Streptococcus Group 9960, agar dilution
[10] = tested on: Haemophilus influenzae Holt; assay: MIC, standard agar-dilution assay, Haemophilus influenzae Holt; format: cell-based
[11] = tested on: Haemophilus influenzae R252; assay: MIC, standard agar-dilution assay, Haemophilus influenzae R252; format: cell-based
Staphylococcus aureus = assay: MIC, broth-dilution microtiter test, Staphylococcus aureus; format: cell-based
Excerpt: (§1) The MIC's in Table X were obtained using conventional broth-dilution microtiter tests.

Streptococcus bovis 80 = assay: MIC, broth-dilution microtiter test, Streptococcus bovis 80; format: cell-based; settings: Streptococcus bovis 80, broth-dilution microtiter
Excerpt: as §1

[12] = tested on: Pasteurella multocida 17E; assay: MIC, broth-dilution microtiter test, Pasteurella multocida 17E; format: cell-based
Excerpt: as §1

[13] = tested on: Pasteurella multocida 60A; assay: MIC, broth-dilution microtiter test, Pasteurella multocida 60A; format: cell-based
Excerpt: as §1

[14] = tested on: Pasteurella hemolytica 22C; assay: MIC, broth-dilution microtiter test, Pasteurella hemolytica 22C; format: cell-based
Excerpt: as §1

Mycoplasma gallisepticum = assay: MIC, broth-dilution microtiter test, Mycoplasma gallisepticum; format: cell-based; settings: Mycoplasma gallisepticum, broth-dilution microtiter
Excerpt: as §1

Mycoplasma synoviae = assay: MIC, broth-dilution microtiter test, Mycoplasma synoviae; format: cell-based
Excerpt: as §1

Mycoplasma hyorhinis = assay: MIC, broth-dilution microtiter test, Mycoplasma hyorhinis; format: cell-based
Excerpt: as §1

Mycoplasma hyopneumoniae = assay: MIC, broth-dilution microtiter test, Mycoplasma hyopneumoniae; format: cell-based
Excerpt: as §1

[15] = tested on: Streptococcus pyogenes C203; assay: In vivo protection of mice experimentally infected with S. pyogenes C203; settings: mice, doses given 1 and 4 hours post-infection; for ED50: Streptococcus pyogenes
Description: The C-20 modified derivatives of this invention have shown in vivo antimicrobial activity against experimentally-induced infections in laboratory animals. When two doses of test compound were administered to mice experimentally infected with S. pyogenes C203, the activity observed was measured as an ED50 value [effective dose in mg/kg to protect 50% of the test animals: see Warren Wick, et al., J. Bacteriol. 81, 233-235 (1961)].

[16] = Staphylococcus aureus X1.1, agar dilution
[17] = Staphylococcus aureus V41, penicillin-resistant strain, agar dilution
[18] = Staphylococcus aureus X400, methicillin-resistant strain, agar dilution
[19] = Staphylococcus aureus S13E, agar dilution
[20] = Staphylococcus epidermidis EPI1, agar dilution
[21] = Staphylococcus epidermidis EPI2, agar dilution
[22] = Streptococcus pyogenes C203, agar dilution
[23] = Streptococcus pneumoniae Park I, agar dilution
[24] = Streptococcus Group D X66, agar dilution
[25] = Haemophilus influenzae Holt, ampicillin-sensitive strain, agar dilution
[26] = Haemophilus influenzae R252, ampicillin-resistant strain, agar dilution
[27] = Pasteurella multocida 17E, bovine isolate, broth-dilution microtiter
[28] = Pasteurella multocida 60A, avian isolate, broth-dilution microtiter
[29] = Pasteurella hemolytica 22C, broth-dilution microtiter
[30] = Mycoplasma synoviae, broth-dilution microtiter
[31] = Mycoplasma hyorhinis, broth-dilution microtiter
[32] = Mycoplasma hyopneumoniae, broth-dilution microtiter
[33] = Staphylococcus epidermidis, EPI1
[34] = Streptococcus equinus, read-out: MIC
[35] = Mycoplasmoides gallisepticum, read-out: MIC
[36] = C203, sc, subcutaneous, read-out: ED50, Subcutaneous
[37] = C203, oral, read-out: ED50, Oral

## CCC1OC(=O)CC(O)C(C)C(OC2OC(C)C(O)C(N(C)C)C2O)C(CCOc2ccc(-c3ccccc3)cc2)CC(C)C(=O)C=CC(C)=CC1COC1OC(C)C(O)C(OC)C1OC (centres unmarked) [Compound 41, 20-DH-20-O-(p-Phenylphenyl)desmycosin]
[1]; [16]
  MIC: 0.5 µg/mL (≈ 0.54 µM)
[2]; [17]
  MIC: 0.25 µg/mL (≈ 0.27 µM)
[3]; [18]
  MIC: 0.5 µg/mL (≈ 0.54 µM)
[4]; [19]
  MIC: 0.25 µg/mL (≈ 0.27 µM)
[5]; [20]
  MIC: 0.5 µg/mL (≈ 0.54 µM)
[6]; [21]
  MIC: 0.25 µg/mL (≈ 0.27 µM)
[7]; [22]
  MIC: 0.25 µg/mL (≈ 0.27 µM)
[8]; [23]
  MIC: 0.25 µg/mL (≈ 0.27 µM)
[9]; [24]
  MIC: 0.5 µg/mL (≈ 0.54 µM)
Streptococcus Group 9960
  MIC: 0.5 µg/mL (≈ 0.54 µM)
[10]; [25]
  MIC: 16 µg/mL (≈ 17.3 µM)
[11]; [26]
  MIC: 16 µg/mL (≈ 17.3 µM)
Staphylococcus aureus; broth-dilution microtiter
  MIC: 0.19 µg/mL (≈ 0.205 µM)
Streptococcus bovis 80
  MIC: 0.39 µg/mL (≈ 0.421 µM)
[12]; [27]
  MIC: 12.5 µg/mL (≈ 13.5 µM)
[13]; [28]
  MIC: 12.5 µg/mL (≈ 13.5 µM)
[14]; [29]
  MIC: 25 µg/mL (≈ 27 µM)
Mycoplasma gallisepticum
  MIC: < 0.05 µg/mL
Mycoplasma synoviae; [30]
  MIC: 0.39 µg/mL (≈ 0.421 µM)
Mycoplasma hyorhinis; [31]
  MIC: 3.12 µg/mL (≈ 3.37 µM)
Mycoplasma hyopneumoniae; [32]
  MIC: 3.12 µg/mL (≈ 3.37 µM)
[15]; oral
  ED50, Oral: 25 mg/kg × 2
[15]; subcutaneous
  ED50, Subcutaneous: > 10 mg/kg × 2

## CCC1OC(=O)CC(O)C(C)C(OC2OC(C)C(O)C(N(C)C)C2O)C(CCOc2ccc(C=O)cc2)CC(C)C(=O)C=CC(C)=CC1COC1OC(C)C(O)C(OC)C1OC (centres unmarked) [Compound 36, 20-DH-20-O-(p-formylphenyl)desmycosin]
[1]; Staphylococcus aureus, X1.1
  MIC: 0.25 µg/mL (≈ 0.285 µM)
[2]; Staphylococcus aureus, V41
  MIC: 0.25 µg/mL (≈ 0.285 µM)
[3]; Staphylococcus aureus, X400
  MIC: 0.25 µg/mL (≈ 0.285 µM)
[4]; Staphylococcus aureus, S13E
  MIC: 0.25 µg/mL (≈ 0.285 µM)
[5]; [33]
  MIC: 0.25 µg/mL (≈ 0.285 µM)
[6]; Staphylococcus epidermidis EPI2, agar dilution, read-out: MIC
  MIC: 0.12 µg/mL (≈ 0.137 µM)
[7]; Streptococcus pyogenes, C203
  MIC: 1 µg/mL (≈ 1.14 µM)
[8]; Streptococcus pneumoniae
  MIC: 1 µg/mL (≈ 1.14 µM)
[9]
  MIC: 4 µg/mL (≈ 4.56 µM)
Streptococcus Group 9960; GROUP9960, read-out: MIC
  MIC: 8 µg/mL (≈ 9.11 µM)
[10]; Haemophilus influenzae
  MIC: 16 µg/mL (≈ 18.2 µM)
[11]; Haemophilus influenzae, R252
  MIC: 16 µg/mL (≈ 18.2 µM)
Staphylococcus aureus
  MIC: 12.5 µg/mL (≈ 14.2 µM)
Streptococcus bovis 80; [34]
  MIC: 12.5 µg/mL (≈ 14.2 µM)
[12]; Pasteurella multocida 17E, bovine isolate, broth-dilution microtiter, read-out: MIC
  MIC: 25 µg/mL (≈ 28.5 µM)
[13]; Pasteurella multocida, 60A
  MIC: 12.5 µg/mL (≈ 14.2 µM)
[14]; Pasteurella, 22C
  MIC: 50 µg/mL (≈ 56.9 µM)
Mycoplasma gallisepticum; [35]
  MIC: 25 µg/mL (≈ 28.5 µM)
Mycoplasma synoviae; Mycoplasmopsis synoviae, Mycoplasma synoviae, broth-dilution microtiter, read-out: MIC
  MIC: > 50 µg/mL
Mycoplasma hyorhinis; Mycoplasma
  MIC: 50 µg/mL (≈ 56.9 µM)
Mycoplasma hyopneumoniae; Mesomycoplasma hyopneumoniae
  MIC: 12.5 µg/mL (≈ 14.2 µM)
[15]; [36]
  ED50: 2.2 mg/kg
[15]; [37]
  ED50: 19 mg/kg

## CCC1OC(=O)CC(O)C(C)C(OC2OC(C)C(O)C(N(C)C)C2OC(C)=O)C(CCOc2ccccc2)CC(C)C(=O)C=CC(C)=CC1COC1OC(C)C(O)C(OC)C1OC (centres unmarked) [Compound 67, 20-DH-20-O-Phenyl-2'-O-acetyldesmycosin]
[1]; [16]
  MIC: 0.25 µg/mL (≈ 0.28 µM)
[2]; [17]
  MIC: 0.25 µg/mL (≈ 0.28 µM)
[3]; [18]
  MIC: 0.5 µg/mL (≈ 0.56 µM)
[4]; [19]
  MIC: 0.25 µg/mL (≈ 0.28 µM)
[5]; [20]
  MIC: 0.25 µg/mL (≈ 0.28 µM)
[6]; [21]
  MIC: 0.12 µg/mL (≈ 0.135 µM)
[7]; [22]
  MIC: 1 µg/mL (≈ 1.12 µM)
[8]; [23]
  MIC: 0.25 µg/mL (≈ 0.28 µM)
[9]; [24]
  MIC: 4 µg/mL (≈ 4.48 µM)
Streptococcus Group 9960
  MIC: 8 µg/mL (≈ 8.97 µM)
[10]; [25]
  MIC: 32 µg/mL (≈ 35.9 µM)
[11]; [26]
  MIC: 16 µg/mL (≈ 17.9 µM)
Staphylococcus aureus; broth-dilution microtiter
  MIC: 0.78 µg/mL (≈ 0.874 µM)
Streptococcus bovis 80
  MIC: 12.5 µg/mL (≈ 14 µM)
[12]; [27]
  MIC: 25 µg/mL (≈ 28 µM)
[13]; [28]
  MIC: 25 µg/mL (≈ 28 µM)
[14]; [29]
  MIC: 25 µg/mL (≈ 28 µM)
Mycoplasma gallisepticum
  MIC: 0.39 µg/mL (≈ 0.437 µM)
Mycoplasma synoviae; [30]
  MIC: 3.12 µg/mL (≈ 3.5 µM)
Mycoplasma hyorhinis; [31]
  MIC: 50 µg/mL (≈ 56 µM)
Mycoplasma hyopneumoniae; [32]
  MIC: 12.5 µg/mL (≈ 14 µM)
[15]; oral
  ED50, Oral: 9 mg/kg × 2
[15]; subcutaneous
  ED50, Subcutaneous: 1.0 mg/kg × 2

## CCC1OC(=O)CC(O)C(C)C(OC2OC(C)C(O)C(N(C)C)C2O)C(CCOC(C(F)(F)F)C(F)(F)F)CC(C)C(=O)C=CC(C)=CC1COC1OC(C)C(O)C(OC)C1OC (centres unmarked) [Compound 32, 20-DH-20-O-[2,2,2-trifluoro-1-(trifluoromethyl)ethyl]desmycosin]
[1]; Staphylococcus aureus, X1.1
  MIC: 0.5 µg/mL (≈ 0.541 µM)
[2]; Staphylococcus aureus, V41
  MIC: 0.5 µg/mL (≈ 0.541 µM)
[3]; Staphylococcus aureus, X400
  MIC: 0.5 µg/mL (≈ 0.541 µM)
[4]; Staphylococcus aureus, S13E
  MIC: 0.5 µg/mL (≈ 0.541 µM)
[5]; [33]
  MIC: 0.5 µg/mL (≈ 0.541 µM)
[6]; Staphylococcus epidermidis, EPI2
  MIC: 0.25 µg/mL (≈ 0.271 µM)
[7]; Streptococcus pyogenes, C203
  MIC: 0.5 µg/mL (≈ 0.541 µM)
[8]; Streptococcus pneumoniae
  MIC: 4 µg/mL (≈ 4.33 µM)
[9]; Streptococcus Group D X66, agar dilution, read-out: MIC
  MIC: 32 µg/mL (≈ 34.6 µM)
Streptococcus Group 9960; GROUP9960, read-out: MIC
  MIC: 32 µg/mL (≈ 34.6 µM)
[10]; Haemophilus influenzae Holt, ampicillin-sensitive strain, read-out: MIC
  MIC: 64 µg/mL (≈ 69.3 µM)
[11]; Haemophilus influenzae, R252
  MIC: 128 µg/mL (≈ 139 µM)
Staphylococcus aureus
  MIC: 0.78 µg/mL (≈ 0.844 µM)
Streptococcus bovis 80; [34]
  MIC: 12.5 µg/mL (≈ 13.5 µM)
[12]; Pasteurella multocida, 17E
  MIC: 50 µg/mL (≈ 54.1 µM)
[13]; Pasteurella multocida, 60A
  MIC: 50 µg/mL (≈ 54.1 µM)
[14]; Pasteurella, 22C
  MIC: 50 µg/mL (≈ 54.1 µM)
Mycoplasma gallisepticum; [35]
  MIC: 0.19 µg/mL (≈ 0.206 µM)
Mycoplasma synoviae; Mycoplasmopsis synoviae
  MIC: 1.56 µg/mL (≈ 1.69 µM)
Mycoplasma hyorhinis; Mycoplasma hyorhinis, broth-dilution microtiter, read-out: MIC
  MIC: > 50 µg/mL
Mycoplasma hyopneumoniae; Mesomycoplasma hyopneumoniae, Mycoplasma hyopneumoniae, broth-dilution microtiter, read-out: MIC
  MIC: > 25 µg/mL
[15]; [36]
  ED50: > 10 mg/kg
[15]; [37]
  ED50: 25 mg/kg
